Laboratory results reported in patent US20230092895A1, “TANDEM CD19 CAR-BASED COMPOSITIONS AND METHODS FOR IMMUNOTHERAPY” (Obsidian Therapeutics, Inc., priority 2019, published 2023).
Where two headings read alike, the source gives them in different places.

Columns and labels:
[1] = human, cited from earlier work
HCT-116 cells = details: 24 hours; for IL15Ra mean fluorescent intensity (MFI): HCT-116 cells stably expressing OT-001111
Procedure: HCT-116 cells stably expressing the OT-001111 (OT-IL15-009) cassette were incubated with 0 to 250 μM TMP ligand (or DMSO) for 24 hours. Membrane bound IL15-IL15Ra levels were assessed using flow cytometry detection of IL15Ra.

[2] = test system: GFP positive (IL12 negative) T cells; assay: In vivo T cell phenotype: GFP positive cells co-transferred with CD19 CAR-IL12 cells, FACS markers, plasma IL12; design: species or system NSG mice
Procedure: IL12-transduced T cells have a Th1-skewed phenotype in vitro, i.e. produce IFN gamma). To assess phenotypic effects of IL12 in vivo, GFP positive (IL12 negative) cells were generated and co-transferred with CD19 CAR-IL12 transduced cells or CD19 alone or IL12 alone cells. Nalm 6 tumor bearing NSG mice were injected with 8 million GFP positive cells, in addition to CD19 CAR-IL12 cells or their corresponding monocistronic constructs. The groups utilized in this study included, 1e^6 empty vector expressing T cells plus 8e^6 GFP positive cells, 1e^6 OT-001407 plus 8e^6 GFP positive cells, 0.1 e^6 OT-001356 plus 8e^6 GFP positive cells, 1e^6 OT-001356 plus 8e^6 GFP positive cells, 0.1e^6 OT-001357 plus 8e^6 GFP positive cells, 1e^6 OT-001357 plus 8e^6 GFP positive cells, and 1e^6 OT-001442 plus 8e^6 GFP positive cells.
Animals were bled on day 3, day 5, day 7 and euthanized at day 12. Blood, spleen, and bone marrow were collected for analysis of T cell number and CD8 frequency. Phenotypic T cell markers such as Granzyme, Tbet, pSTAT4, CD25, and ICOS were analyzed in the GFP positive cells using FACS. […] By day 12, post transfer, the levels of Granzyme B, Tbet, pSTAT4, CD25 and ICOS levels increased in the blood of the mice injected with the CD19 CAR-IL12 tandem constructs. ANOVA test for significance was p<0.0001 for all markers. […]

Row | Molecule | TMP maximum peak levels ([1]; 150 mg/m2 IV every 8 hours) | TMP steady state levels ([1]; 80-160 mg BID PO) | TMP concentration resulting in IL15Ra MFI levels above DMSO controls (HCT-116 cells; HCT-116 stably expressing OT-001111) | IL15Ra mean fluorescent intensity (MFI) (HCT-116 cells; TMP 0.00064 μM) | IL15Ra mean fluorescent intensity (MFI) (HCT-116 cells; TMP 0.0032 μM) | IL15Ra mean fluorescent intensity (MFI) (HCT-116 cells; TMP 0.016 μM) | IL15Ra mean fluorescent intensity (MFI) (HCT-116 cells; TMP 0.08 μM) | IL15Ra mean fluorescent intensity (MFI) (HCT-116 cells; TMP 0.4 μM) | IL15Ra mean fluorescent intensity (MFI) (HCT-116 cells; TMP 2 μM) | IL15Ra mean fluorescent intensity (MFI) (HCT-116 cells; TMP 10 μM) | IL15Ra mean fluorescent intensity (MFI) (HCT-116 cells; TMP 50 μM) | IL15Ra mean fluorescent intensity (MFI) (HCT-116 cells; TMP 250 μM) | EC 50 of IL12 in plasma ([2]; mouse, in vivo) | level of IL12 sufficient to induce phenotypic changes ([2]; plasma, markers and IFN gamma)
1 | COc1cc(Cc2cnc(N)nc2N)cc(OC)c1OC [TMP, Trimethoprim] | 17 to 34 µM | 1 to 6 µM | 0.0032 µM | 304 | 469 | 666 | 769 | 1001 | 1104 | 1204 | 1344 | 1576 |  | 
2 | IL12: heterodimeric protein of two subunits (p35, p40); cytokine |  |  |  |  |  |  |  |  |  |  |  |  | ~0.1 ng/mL | 200 pg/mL
